Laboratory results published in US20050176775A1, “Substituted pyridinones” (priority 2003, published 2005).

Legend:
human p38 kinase alpha = target: T1, human p38 kinase alpha (Homo sapiens, UniProt Q16539); experiment: p38 alpha kinase assay (PHAS-I / 32P-ATP format or EGFRP / 33P-ATP format); assay type: biochemical; settings: inhibition of activated human p38 kinase alpha; the text does not say which of the two in vitro formats was used
T1 construct: made in house; host or cells: E. coli DH10B
Method: The ability of compounds to inhibit human p38 kinase alpha was evaluated using two in vitro assay methods. In the first method, activated human p38 kinase alpha phosphorylates a biotinylated substrate, PHAS-I (phosphorylated heat and acid stable protein-insulin inducible), in the presence of gamma ^32P-ATP (^32P-ATP). PHAS-I was biotinylated prior to the assay and provides a means of capturing the substrate, which is phosphorylated during the assay. p38 Kinase was activated by MKK6. Compounds were tested in 10 fold serial dilutions over the range of 100 μM to 0.001 μM using 1% DMSO. Each concentration of inhibitor was tested in triplicate.
All reactions were carried out in 96 well polypropylene plates. Each reaction well contained 25 mM HEPES pH 7.5, 10 mM magnesium acetate and 50 μM unlabeled ATP. […] Activated human p38 kinase alpha was used at 1 μg per 50 μl reaction volume representing a final concentration of 0.3 μM. […]
Following incubation, 20 μl of reaction mixture was transferred to a high capacity streptavidin coated filter plate (SAM-streptavidin-matrix, Promega) prewetted with phosphate buffered saline. […] The plates were sealed and counted.
Compounds were tested in 10 fold serial dilutions over the range of 100 μM to 0.001 μM in 1% DMSO. […] 150 μl of Microscint 40 was then added to each well of the Microlite plate, and the plate was sealed, mixed, and counted.

T1 sequence (Q16539 whole entry): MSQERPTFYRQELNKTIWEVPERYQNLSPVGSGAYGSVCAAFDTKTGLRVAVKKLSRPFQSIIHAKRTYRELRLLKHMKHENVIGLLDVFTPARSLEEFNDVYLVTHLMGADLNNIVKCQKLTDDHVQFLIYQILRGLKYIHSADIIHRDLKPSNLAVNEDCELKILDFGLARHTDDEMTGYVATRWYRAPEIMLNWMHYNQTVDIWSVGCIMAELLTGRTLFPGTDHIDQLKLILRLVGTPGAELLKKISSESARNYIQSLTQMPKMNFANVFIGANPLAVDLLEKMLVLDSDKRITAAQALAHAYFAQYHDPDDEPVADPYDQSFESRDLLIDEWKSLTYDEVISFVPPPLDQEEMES

**Q.** Which IC50 (human p38 kinase alpha) does the source give for `Cc1c(/C=N/O)c(OCc2ccc(F)cc2F)c(Br)c(=O)n1-c1c(F)cccc1F` [Example 565, 5-bromo-4-[(2,4-difluorobenzyl)oxy]-1-(2,6-difluorophenyl)-2-methyl-6-oxo-1,6-dihydropyridine-3-carbaldehyde Oxime] here?
**A.** Its IC50 is 25 to 100 µM.

**Q.** For `O=c1cc(OCc2cccc(Cl)c2)ccn1Cc1ccccc1` [Example 45, 1-benzyl-4-[(3-chlorobenzyl)oxy]pyridin-2(1H)-one], which melting point is on record?
**A.** The melting point was 95.5 to 95.7 °C.

**Q.** For `Cc1ccc(COc2ccn(Cc3ccccc3)c(=O)c2Br)cc1` [Example 44, 1-benzyl-3-bromo-4-[(4-methylbenzyl)oxy]pyridin-2(1H)-one], which melting point is on record?
**A.** Its melting point is 149 to 149.7 °C.

**Q.** With `CCOC(=O)Cc1cccc(Cn2ccc(OCc3ccc(F)cc3F)c(Br)c2=O)c1` [Example 127, Ethyl {3-[3-Bromo-4-(2,4-difluorobenzyloxy)-2-oxo-2H-pyridin-1-ylmethyl]-phenyl}acetate] as the molecule, how does the melting point read?
**A.** Its melting point is 95 to 98 °C.

**Q.** With `O=c1c(Br)c(OCc2ccccc2)ccn1CCc1ccsc1` [Example 29, 4-(benzyloxy)-3-bromo-1-(2-thien-3-ylethyl)pyridin-2(1H)-one] as the molecule, how does the melting point read?
**A.** The melting point was 134 to 134.3 °C.

**Q.** With `NCCc1cccc(Cn2ccc(OCc3ccc(F)cc3F)c(Br)c2=O)c1.O=C(O)C(F)(F)F` as the molecule, how does the melting point read?
**A.** Its melting point is 70 to 74 °C.

**Q.** With `Cc1ccc(C(N)=O)cc1-n1c(C)cc(OCc2ccc(F)cc2F)c(Br)c1=O` (single isomer, unassigned) [Example 736, (+)-3-[3-bromo-4-[(2,4-difluorobenzyl)oxy]-6-methyl-2-oxopyridin-1(2H)-yl]-4-methylbenzamide] as the molecule, how does the IC50 (human p38 kinase alpha) read?
**A.** The IC50 was < 1 µM.

**Q.** Which melting point does the source give for `NC(=O)Cc1ccccc1Cn1ccc(OCc2ccc(F)cc2F)c(Br)c1=O` [Example 126, 2-{2-[3-Bromo-4-(2,4-difluorobenzyloxy)-2-oxo-2H-pyridin-1-ylmethyl]-phenyl}acetamide] here?
**A.** The melting point was 178 to 183 °C.
